From US8975234B2, “Anti-bacterial infection, inflammation, and leukemia composition and use thereof” (priority 2011, dated 2015)

Tests used:
[1] = test system: Staphylococcus aureus biofilm formation; test: Biofilm formation; type: cell-based; conditions: 40 μg/mL Tellimagrandin II
Protocol: Bacteria was grown overnight (16˜18 hours) on agar plate. Then, collected and re-suspended in 0.45% sterile PBS and diluted in sterile PBS to final optical density at 600 nm (OD600) of 0.1. Polystyrene 96-well microtitre plates were filled with 150 μL of culture medium and 20 μL of bacterial solution per well. The cultures were allowed to stand at 37° C. for 18 hours. After the incubation period, cultures were removed, and microtitre plate wells were gently washed three times with 300 μL of sterile PBS to remove loosely associated bacteria, then dried at 60° C. oven for 1 hour. Samples were stained by the addition of the 2% dye solution (150 μL) to each well above the initial inoculation level and incubated for 15 minutes. The plate was then washed in fresh water. The intensity of staining was measured after the addition of 95% alcohol (150 μL) to each dry well. The samples were incubated at room temperature for 30 min, after which the OD517 values were measured on a plate reader.
Optical density cut-off value (ODc)=average OD of negative control+3× standard deviation (SD) of negative control (The interpretation of biofilm production was done according to the criteria of Srdjan et al. (APMIS 115: 891-9, 2007). MRSA 17199 were used as control strain.

[2] = test system: LPS-induced NO in RAW264.7 cells; test: NO production analysis (Griess reagent); type: cell-based, mouse; conditions: before or after LPS, 25 and 50 μM statistically significant
Protocol: Murine macrophage cells were plated in each well on a 12-well plate at a density of about 4×10^5 RAW264.7 cells/mL. After overnight incubation, cells were serum starved in DMEM medium containing 2% Fetal Bovine Serum (FBS) for 3 hours. […] Endogenous NO production, induced by LPS. Cells were treated with Tellimagrandin II at various concentrations (10, 25 and 50 μM) before and after being treated with LPS. For NO production analysis, culture supernatants were brought to 96-well plate and mixed with Griess reagent. Plates were incubated and then the absorbance was measured at 520 nm. Sodium nitrite (NaNO2) solution (0 M˜0.1 M, 8 points) prepared in DMEM was used to generate a standard curve. The nitrite concentrations of samples were determined by interpolation from the standard curve. […] FIG. 10 is framed by a an x-axis labeled the relative order in LPS or Tellimagrandin II treatment and concentrations, and y-axis labeled NO concentration. The control (LPS only) and test groups were compared using a t-test, *p<0.05 (significant) and #p<0.01 (highly significant).

[3] = test system: human erythromyeloblastoid leukemia K-562 cell; test: Cell viability WST-1 assay; type: cell-based
Protocol: Quantitative cell viability assessed using WST-1 assay. WST-1 is a reagent which produces a highly water soluble formazan upon metabolically active cells, allowing a direct colorimetric measurement of cell viability.
The K-562 cells were plated in a 96-well culture plate at a seeding density of 6,000 cells/well (100 μL) and incubated at 37° C. with 5% CO2 for 16˜18 hours. Cells were treated with 20 μL Tellimagrandin II to make the final concentrations of 0, 20, 40, 60 and 80 μM, and incubated at 37° C. with 5% CO2 for 24 and 48 hours. Cells without Tellimagrandin II treatment used as a control. Added 12 μL of WST-1 reagent (10:1) to each well of the plate and mixed well, then incubated at 37° C. in a 5% CO2 incubator for 2 hours. After incubation, the absorbance at 450 nm (test wavelength) and 630 nm (reference wavelength) were measured. Data was calculated by subtracting the 630 nm background absorbance from the 450 nm measurement.

[4] = test system: K-562 cells; test: Western blotting of apoptosis and cell cycle proteins; type: cell-based, human; conditions: 40 and 50 μM, 48 hours
Protocol: A total of 3 mL cell solution at the concentration of 1×10^6K-562 cells per mL was cultured in 6 cm cell culture dish in an incubator supplied with 5% CO2 at 37° C. for 30 minutes so that cells could adapt to the environment. Tellimagrandin II solutions of different concentrations were added by order so that the final concentrations are 0, 40 and 50 μM, respectively. The solution was placed in incubator with 5% CO2 at 37° C. for 48 hours. After incubation, it was centrifuged at 1,000 rpm at 4° C. for 5 minutes and rinsed by PBS once. RIPA buffer solution containing protease inhibitors was added to decompose the cells.
The solution was rapidly frozen with liquid nitrogen and unfrozen for three times to ensure that cells had been broken by the physical damages. The solution was centrifuged at 15,000 rpm at 4° C. for 30 minutes; the supernatant containing total cell protein was collected. Protein concentrations were determined by BCA protein assay. Finally, equal amounts of protein samples (40 μg) were boiled in 1× loading buffer for 3 minutes to decompose protein into primary structure for further protein gel electrophoresis (or stored at −80° C.).
SDS-PAGE 10% or 12% was selected by the desired protein molecular weight in the protein gel electrophoresis (150 V, 17 mA for 2 hour and 5 minutes). The protein was transferred from the gel to PVDF membrane using wet transfer procedure (100 V, 300 mA for 30 minutes). The membrane was blocked at room temperature for one hour in Tris-buffered saline-Tween (TBS-T) buffer solution containing 2% Bovine serum albumin (BSA) to eliminate non-specifically binding.
PVDF membrane was probed with primary antibody diluted with by the recommended amount according the manufacture in 2% BSA-TBS-T buffer solution at 4° C. for 16 to 18 hours. After the interaction completed, TBS-T buffer solution was used to rinse out the non-specifically bound primary antibody. TBS-T buffer solution was changed every 10 minutes for three times in about 30 minutes. Then, specific secondary antibody was added for interaction at room temperature for one hour. TBS-T buffer solution was used to rinse out the non-specifically bound secondary antibody. TBS-T buffer solution was changed every 10 minutes for six times in about 60 minutes. ECL System (Enhanced chemiluminescence system) was used and film was exposed to light and developed. Finally qualitative analysis was performed. […] Protein related to cell cycle regulation includes G2/M checkpoint regulators, Cyclin B1 and Cdc-25C.

With `O=C(OC1O[C@@H]2COC(=O)c3cc(O)c(O)c(O)c3-c3c(cc(O)c(O)c3O)C(=O)O[C@H]2[C@H](OC(=O)c2cc(O)c(O)c(O)c2)[C@H]1OC(=O)c1cc(O)c(O)c(O)c1)c1cc(O)c(O)c(O)c1` (some centres unmarked) [Tellimagrandin II] the “OD (average OD value of the strain − ODc)” value ([1]; ODc 0.167) was 0.039, the “Average OD value” ([1]; biofilm staining of strain) was 0.206 and the “Absorbance 1” value ([1]; biofilm staining of strain, replicate 1) was 0.153. The “Absorbance 2” value ([1]; biofilm staining of strain, replicate 2) was 0.259, the “Absorbance 3” value ([1]; biofilm staining of strain, replicate 3) was 0.167 and the “Absorbance 4” value ([1]; biofilm staining of strain, replicate 4) was 0.246. The “production of LPS-induced NO” value [2] was “decreased the production of LPS-induced NO”, the IC50 ([3]; K562, 24 hr) was 57 µM and the IC50 ([3]; K562, 48 hr) was 48.1 µM. The “Caspase-8 (inactive form)” value [4] was “decreases”, the “Caspase-9, Caspase-3, and Caspase-7” value [4] was “activation” and the “Cyclin B1 and Cdc-25C (non-phosphorylated) activity” value [4] was “decreased”. The PARP [4] was “ultimate activation” and the “protein of anti-apoptosis Bcl-2” value [4] was “decrease”.
